Measurements reported in patent US20250041412A1, “TRANSMEMBRANE NEOANTIGENIC PEPTIDES” (INSTITUT CURIE, priority 2021, published 2025).
“Also recorded” adds a separate entry of the source.

The molecules below were run on CD8+ T cells (assay: Priming of naive CTLs by peptide-loaded moDCs, two-colour tetramer staining (immunogenicity)). Details: one HLA-A2+ healthy donor; at least one magnitude order more tetramer positive cells than control without peptides.
Format: cell-based, human
Experimental: Priming of naïve CTLs. PBMCs were obtained by Ficoll gradient separation from HLA-A2+healthy blood donors. CD14+, CD4+ and CD8+ cells were purified by positive selection using magnetic beads (Miltenyi Biotec). While CD4+ and CD8+ T cells were cryopreserved until the experiment day, CD14+ fraction was cultured in the presence of IL-4 (50 ng/mL) and GM-CSF (10 ng/mL) at 10^6 cells/mL during 5 days to obtain moDCs. After this period of time, the moDCs were maturated with LPS and incubated with synthetic ER-derived peptides at a final concentration of 1 μg/mL for 2 hours. Finally, peptide-loaded moDCs were co-cultured with autologous CD4+ and CD8+ T cells in culture medium supplemented with IL-2 (10 U/ml) and IL-7 (100 ng/ml). The ER-derived peptide stimulation of specific CD8+CTL populations was assessed by MHC-I tetramer staining by flow cytometry using a combination of two-color tetramer for each peptide.
(§1) Tetramer Staining. Cells were resuspended in PBS, stained with Live/Dead Aqua-405 nm (ThermoFisher) during 20 minutes at 4° C. and washed once. After that, cells were resuspended in PBS-1% BSA containing the mix of SA-coupled tetramers and incubated in the dark at room temperature during 20 minutes. Without further washing, surface antibodies were added in PBS-1% BSA and cells were incubated 20 minutes in the dark at 4° C. Surface antibodies were a combination of anti-CD3-BV650+anti-CD8-PECy7 in combination with anti-CCR7-AF700+anti-CD45RA-BUV395 when required. Finally, cells were washed twice and resuspended in FACS buffer for flow cytometry analysis.
Priming assays were thus performed to test the ability of identified peptides to expand specific cytotoxic T cells. PBMCs from HLA-A2+healthy donors were used to generate monocyte derived-DCs (moDCs). After loading the moDCs with a mix of synthetic peptides, autologous co-culture was performed with CD4+ and CD8+ T cells. Finally, the expansion of specific CD8+ T cells was analysed by flow cytometry using two-colours tetramer staining. As a control of specific expansion, the co-culture was performed in the absence of peptides.
The same experiment was performed in order to evaluate the response in additional 5 donors. […] As a positive of expansions, mutated Melan-A peptide ([…]) were used.

Molecule | expansion of specific CD8+ T cells (tetramer staining)
FLIVAEILI | expand specific CD8+ T cells
RLLHLESFL | expand specific CD8+ T cells
AILPKANTV | expand specific CD8+ T cells
YLWTTFFPL | expand specific CD8+ T cells
RLADHLSFC | expand specific CD8+ T cells
LLGETKVYV | expand specific CD8+ T cells

Same assay, conditions: total of 6 HLA-A2+ healthy donors, FIG. 12A

Molecule | specific CD8+ T expansions (immunogenicity)
MLVTWELAL | specific CD8+ T expansions
RLLHLESFL | specific CD8+ T expansions
AILPKANTV | specific CD8+ T expansions
ILTASITSI | specific CD8+ T expansions
YLWTTFFPL | specific CD8+ T expansions
LLHLESFLV | specific CD8+ T expansions
RQAPGFHHA | specific CD8+ T expansions
SLMQSGSPV | specific CD8+ T expansions
RLADHLSFC | specific CD8+ T expansions; also recorded: immunogenic
FLGTRVTRV | specific CD8+ T expansions
LLGETKVYV | specific CD8+ T expansions
ILSGYGPCV | specific CD8+ T expansions
VLMWTMAHL | specific CD8+ T expansions
MLMKTVWQA | specific CD8+ T expansions
YLPYFLKSL | specific CD8+ T expansions
AMDGKELSL | specific CD8+ T expansions
ILHSLVTGV | specific CD8+ T expansions
GLLNISHTA | specific CD8+ T expansions
VLLTNTIWL | specific CD8+ T expansions
GLPSHVELA | specific CD8+ T expansions; also recorded: immunogenic
LLTSWHLYL | specific CD8+ T expansions
LLDRFGYHV | specific CD8+ T expansions

These molecules were tested on CD8+ T cells (assay: Tetramer staining of CD8+ T cells from LUAD patient samples (TILs, tumor, juxta tumor, lymph nodes, blood)). Details: TILs from LUAD patients expanded with peptide mix + IL-2 or IL-2 only.
Format: cell-based, human
Experimental: as §1
Tissues and Blood samples. […]
Tumor infiltrating lymphocytes (TILs) cultures. […] Cells were feed/split as necessary during 15-20 days and cryopreserve or analyzed for tetramer staining.
In a first set of experiments tumor infiltrating lymphocytes (TILs) expanded with a mix of TE-derived peptides and Il-2, or only with Il-2, were analyzed by tetramer staining. […]
Using this strategy, CD8+ T cells present in Tumor, juxta-tumor, invaded lymph-nodes and blood derived from LUAD patient samples were thus analyzed. The cell phenotype was determined based on the expression of surface markers CCR7 and CD45RA for Naïve (CCR7+CD45+), Central Memory (CM, CCR7+CD45RA−) Effector Memory (EM, CCR7−CD45−) and Terminal Effectors (TE, CCR7−CD45+) T cells. […]

Molecule | CD8+ T cells / TILs recognizing the peptide (tetramer positive)
GLPSHVELA | found TILs recognizing peptide

What follows are molecules tested against T1, HLA-A2 molecule (HLA-A*02:01), recombinant monomer (human) (assay: HLA-A2 monomer stabilisation and tetramer formation with synthetic peptide, flow cytometry with PE anti-b2m; positive control CMV peptide). Details: not given.
T1 construct: Peptide-free monomer that is incubated with a synthetic peptide for 48 h at 18 C; also called HLA-A2 allele; HLA-A2 monomers

percentage of fluorescence relative to positive control (HLA-A2 tetramer formation) | Molecule
> 50% | YLPYFLKSL (Synthetic peptide) [chimeric transcript-derived peptide YLPYFLKSL]
> 50% | FLGTRVTRV (Synthetic peptide) [chimeric transcript-derived peptide FLGTRVTRV]
> 50% | MLMKTVWQA (Synthetic peptide; also called peptide 80) [chimeric transcript-derived peptide MLMKTVWQA]
> 50% | AMDGKELSL (Synthetic peptide) [chimeric transcript-derived peptide AMDGKELSL]
> 50% | RLLHLESFL (Synthetic peptide) [chimeric transcript-derived peptide RLLHLESFL]
> 50% | RLADHLSFC (Synthetic peptide; also called peptide 64) [chimeric transcript-derived peptide RLADHLSFC]
> 50% | AILPKANTV (Synthetic peptide) [chimeric transcript-derived peptide AILPKANTV]
> 50% | FLIVAEILI (Synthetic peptide) [chimeric transcript-derived peptide FLIVAEILI]
